Columns and labels:
[1] = system: subjects with newly diagnosed AML harboring FLT3 mutations; conditions: in combination with standard first line chemotherapy; cited from earlier work
[2] = potentially due to induction of metabolizing enzymes; cited from earlier work
[3] = Plasma pharmacokinetics of quizartinib and AC886; format: in vivo, human
[4] = system: subjects with FLT3‐ITD–mutated AML following HCT; conditions: sorafenib maintenance following HCT; cited from earlier work

For `CO[C@@H]1[C@H](N(C)C(=O)c2ccccc2)C[C@H]2O[C@]1(C)n1c3ccccc3c3c4c(c5c6ccccc6n2c5c31)C(=O)NC4` [midostaurin], the OS benefit [1] is listed as “significant OS benefit” and the “Plasma concentrations during continuous dosing” value [2] is listed as “decrease during continuous dosing”.

In the case of `CC(C)(C)c1cc(NC(=O)Nc2ccc(-c3cn4c(n3)sc3cc(OCCN5CCOCC5)ccc34)cc2)no1.Cl.Cl` [quizartinib, N‐(5‐tert‐butyl‐isoxazol‐3‐yl)‐N′‐{4‐[7‐(2‐morpholin‐4‐yl‐ethoxy)imidazo[2,1‐b][1, 3]benzothiazol‐2‐yl]phenyl}urea dihydrochloride], the “Plasma trough concentrations reached steady state by” value ([3]; daily administration) is reported as ~15 days, the Mean trough concentration ([3]; from cycle 2 onward, continuous administration) is reported as > 300 ng/mL and the Tmax ([3]; human, plasma, oral) is reported as 2 to 3.21 h. The “Increase in geometric mean AUC0–24 during multiple dosing” value ([3]; quizartinib, both doses) was “approximately 5 fold”.

In the case of `CNC(=O)c1cc(Oc2ccc(NC(=O)Nc3ccc(Cl)c(C(F)(F)F)c3)cc2)ccn1` [sorafenib], the “1‐year OS” value [4] is given as 95% and the “1‐year progression‐free survival (PFS)” value [4] is given as 85%.

From PMC6585789 (American Journal of Hematology, 2017)
